From ChEMBL document CHEMBL1201862, “PubChem BioAssay data set” (2004)
Calls of active or inactive are those of the source.

What was measured:
[1] = cytotoxicity toward DRD oncogenic fibroblasts, dose response, cell-based, non-viral oncogenic, luminescence (AID 1934); type: functional; conditions: Homo sapiens
Protein RecA = molecular target: T1, Protein RecA (Mycobacterium tuberculosis, UniProt P9WHJ3); assay: Fluorescence Cell-Free Homogeneous Dose Retest to Identify Inhibitors of RecA-Intein Splicing Activity. [Related pubchem assays (depositor defined):AID2097, AID2223, AID489010, AID492950]; type: functional
T1 sequence (P9WHJ3 whole entry): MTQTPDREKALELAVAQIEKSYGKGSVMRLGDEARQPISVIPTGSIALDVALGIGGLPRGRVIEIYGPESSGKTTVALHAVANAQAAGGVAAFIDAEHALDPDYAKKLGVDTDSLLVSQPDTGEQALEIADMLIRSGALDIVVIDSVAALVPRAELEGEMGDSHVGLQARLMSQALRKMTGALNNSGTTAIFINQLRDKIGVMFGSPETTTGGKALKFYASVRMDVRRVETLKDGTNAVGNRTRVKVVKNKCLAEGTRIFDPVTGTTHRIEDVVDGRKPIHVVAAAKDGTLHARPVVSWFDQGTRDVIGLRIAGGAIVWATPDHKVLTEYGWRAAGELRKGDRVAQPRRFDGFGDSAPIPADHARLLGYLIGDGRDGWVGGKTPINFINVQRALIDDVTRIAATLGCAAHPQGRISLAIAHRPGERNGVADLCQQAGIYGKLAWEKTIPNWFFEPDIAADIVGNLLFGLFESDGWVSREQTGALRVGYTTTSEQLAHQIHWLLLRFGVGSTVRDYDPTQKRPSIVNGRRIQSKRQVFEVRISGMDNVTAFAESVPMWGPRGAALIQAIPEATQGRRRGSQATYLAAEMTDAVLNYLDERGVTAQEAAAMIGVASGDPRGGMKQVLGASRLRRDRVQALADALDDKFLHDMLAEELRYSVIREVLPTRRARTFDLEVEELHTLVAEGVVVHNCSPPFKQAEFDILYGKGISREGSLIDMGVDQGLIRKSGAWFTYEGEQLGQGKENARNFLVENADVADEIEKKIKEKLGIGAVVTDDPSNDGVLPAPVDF

Genome polyprotein = Genome polyprotein (dengue virus type 2, UniProt P29990); assay: Dengue-2 NS5 methyltransferase inhibitors, primary screen, biochemical, confirmation dose response (AID 588689); type: functional
INS1 = assay: beta cell apoptosis inhibitors, cytokine rescue, dose response, luminescence, retest (AID 449756); type: functional, cell-based; conditions: Rattus norvegicus;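 note: cell death triggered by IL-1 beta plus TNF-alpha plus IFN-gamma mixture; protective hits raise ATP signal compared with cytokine alone wells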
BJ [2] = assay: cytotoxicity toward Ras-transformed BJeLR fibroblasts, dose response, cell-based, alamar blue fluorescence, cherrypicked samples (AID 2631); type: functional; conditions: Homo sapiens;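 note: confirmatory dose-response assay in RAS-dependent BJ fibroblasts engineered with TERT, LT and ST, with cytotoxicity read by fluorescence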
[3] = Luminescence Cell-Based Dose Confirmation HTS to Identify Inhibitors of Platelet Dense Granule Release. [Related pubchem assays: 1663 (Primary HTS), 1678 (Summary of Project)]; type: functional
[4] = molecular target: Luciferin 4-monooxygenase (Photinus pyralis, UniProt P08659); assay: firefly luciferase enzyme inhibitors, dose response, biochemical, luminescence (AID 1891)
[5] = Fluorescence-based cell-based high throughput dose response assay for inhibitors of the interaction of nucleotide-binding oligomerization domain containing 2 (NOD2) and the receptor-interacting serine-threonine kinase 2 (RIPK2).; type: functional; conditions: Homo sapiens
Vero = Vero cell cytotoxicity, cytotoxicity control for flavivirus capping enzyme inhibitors (AID 588742); type: functional; conditions: Chlorocebus sabaeus
[6] = molecular target: T2, Replicative DNA helicase DnaB (Mycobacterium tuberculosis, UniProt P9WMR3); assay: DnaB intein splicing inhibitors, dose response, biochemical, cell-free fluorescence (AID 449749); type: functional
T2 sequence (P9WMR3 whole entry): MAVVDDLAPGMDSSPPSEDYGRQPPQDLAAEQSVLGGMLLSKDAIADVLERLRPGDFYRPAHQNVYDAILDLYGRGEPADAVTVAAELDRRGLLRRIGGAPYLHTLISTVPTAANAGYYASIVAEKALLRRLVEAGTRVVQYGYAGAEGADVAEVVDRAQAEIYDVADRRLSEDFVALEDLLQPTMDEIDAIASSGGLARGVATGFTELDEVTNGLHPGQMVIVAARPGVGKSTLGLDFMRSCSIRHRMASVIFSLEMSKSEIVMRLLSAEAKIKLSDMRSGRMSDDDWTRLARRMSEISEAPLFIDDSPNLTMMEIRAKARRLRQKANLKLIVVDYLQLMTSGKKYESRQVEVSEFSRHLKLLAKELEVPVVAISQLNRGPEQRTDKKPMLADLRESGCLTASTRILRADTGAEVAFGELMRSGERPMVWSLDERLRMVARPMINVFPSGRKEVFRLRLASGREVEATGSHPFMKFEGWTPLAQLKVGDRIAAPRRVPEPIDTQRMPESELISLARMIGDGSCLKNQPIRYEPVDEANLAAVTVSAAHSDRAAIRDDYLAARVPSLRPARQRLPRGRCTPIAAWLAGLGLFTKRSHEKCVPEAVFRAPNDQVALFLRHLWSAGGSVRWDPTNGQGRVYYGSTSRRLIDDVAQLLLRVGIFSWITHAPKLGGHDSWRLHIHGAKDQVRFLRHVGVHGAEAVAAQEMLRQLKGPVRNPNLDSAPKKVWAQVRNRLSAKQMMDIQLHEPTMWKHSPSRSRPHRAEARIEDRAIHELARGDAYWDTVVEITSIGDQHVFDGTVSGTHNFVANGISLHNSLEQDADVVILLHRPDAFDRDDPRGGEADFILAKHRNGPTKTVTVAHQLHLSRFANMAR

Beta Lactamase [7] = molecular target: T3, Beta Lactamase (Pseudomonas aeruginosa, UniProt Q932Y6); assay: beta-lactamase reporter inhibitor potency, dose response, artefact control for TLR9-MyD88 binding inhibitor project, BLA reporter cells, FRET fluorescence (AID 588341); type: cell-based;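 note: cell based assay in CHO-K1 cells stably expressing beta-lactamase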
BJ [8] = assay: cytotoxicity toward BJ-TERT fibroblasts, dose response, cell-based, RAS-independent, luminescence (AID 1933); type: functional; conditions: Homo sapiens
BJ [9] = assay: cells; type: functional, cell-based; conditions: Homo sapiens
BJ [10] = assay: cytotoxicity toward BJ-TERT-LT-ST fibroblasts, dose response, cell-based, RAS-independent, luminescence (AID 1935); type: functional; conditions: Homo sapiens;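 note: BJ fibroblasts immortalized with TERT plus LT and ST oncogenes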
Fatty acid synthase [11] = molecular target: T4, Fatty acid synthase (Homo sapiens, UniProt P49327); assay: FAS thioesterase domain inhibitors, dose response, biochemical, endpoint fluorescence intensity, uHTS hits (AID 624327); type: functional;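 note: fluorescence from hydrolysis of an O-methyl fluorescein acyl ester substrate by the enzyme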
CHO = assay: cytotoxicity in TLR9-MyD88 CHO cells, dose response, cytotoxicity control for TLR9-MyD88 binding inhibitor project, cell-based, luminescence (AID 588339); type: functional, hamster; conditions: Cricetulus griseus;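 note: CHO cells stably coexpressing TLR9 and MyD88 fusions from primary screen; compound exposure lasted 48 hours before viability readout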
Beta Lactamase [12] = molecular target: T3, Beta Lactamase; assay: beta-lactamase reporter inhibitor potency, dose response, artefact control for NOD2-RIPK2 interaction inhibitor project, BLA reporter cells, FRET fluorescence (AID 651552); type: functional, cell-based
Fatty acid synthase [13] = molecular target: T4, Fatty acid synthase; assay: FAS thioesterase domain inhibitors, dose response, biochemical, kinetic fluorescence intensity (AID 624326); type: functional;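 note: rate of fluorescence rise from hydrolysis of a fluorogenic O-methyl fluorescein ester substrate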
Large T antigen = Large T antigen (Simian virus 40, UniProt P03070); type: functional, Betapolyomavirus macacae;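 note: Confirmatory-stage PubChem screen for compounds that inhibit SV40 T antigen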
Orexin receptor type 2 [14] = molecular target: T5, Orexin receptor type 2 (Homo sapiens, UniProt O43614); assay: Counterscreen assay for antagonists of the orexin 1 receptor (OX1R; HCRTR1): Fluorescence-based cell-based dose response assay for antagonists of the orexin 2 receptor (OX2R; HCRTR2), run by assay provider.; type: functional
T5 sequence (O43614 whole entry): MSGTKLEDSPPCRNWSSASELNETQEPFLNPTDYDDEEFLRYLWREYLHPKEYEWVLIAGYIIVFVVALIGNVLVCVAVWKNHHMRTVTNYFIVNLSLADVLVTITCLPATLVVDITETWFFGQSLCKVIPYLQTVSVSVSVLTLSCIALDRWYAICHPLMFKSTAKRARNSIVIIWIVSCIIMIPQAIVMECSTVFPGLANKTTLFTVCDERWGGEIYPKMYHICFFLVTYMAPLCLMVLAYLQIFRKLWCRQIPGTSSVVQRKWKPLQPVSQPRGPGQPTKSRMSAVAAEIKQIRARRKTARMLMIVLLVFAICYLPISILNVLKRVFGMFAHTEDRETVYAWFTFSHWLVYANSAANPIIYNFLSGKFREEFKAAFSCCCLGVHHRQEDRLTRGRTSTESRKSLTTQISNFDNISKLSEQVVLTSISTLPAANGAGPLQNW

[15] = growth suppression of beta-catenin-knockout colon cells, dose response, cell-based, HCT116, human colon tumor (AID 1045); type: functional;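 note: HCT116 colon tumor cells with beta catenin knocked out; cells exposed to compound for 60 hours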
[16] = growth suppression of PTEN-null colon cells, dose response, cell-based, HCT116 PTEN knockout (AID 1047); type: functional;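 note: HCT116 colon tumor cells with PTEN knocked out; cells exposed to compound for 60 hours before readout; potency for loss of cell viability measured by luminescence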
Orexin receptor type 2 [17] = molecular target: T5, Orexin receptor type 2; assay: Counterscreen assay for antagonists of the orexin 1 receptor (OX1R; HCRTR1): Homogeneous Time Resolved Fluorescence (HTRF)-based cell-based dose response assay for antagonists of the orexin 2 receptor (OX2R; HCRTR2), run by assay provider.; type: functional
[18] = Counterscreen for antagonists of the orexin 1 receptor (OX1R; HCRTR1): Fluorescence-based cell-based high throughput dose response assay to identify antagonists of the parental CHO cell line. [Related pubchem assays (depositor defined):AID434989, AID435008, AID463079, AID485270, AID492963, AID492964, AID492965, AID493232, AID504699, AID504701]; type: functional
[19] = molecular target: T6, Orexin/Hypocretin receptor type 1 (Homo sapiens, UniProt O43613); assay: Homogeneous Time Resolved Fluorescence (HTRF)-based cell-based high throughput dose response assay for antagonists of the orexin 1 receptor (OX1R; HCRTR1). [Related pubchem assays (depositor defined):AID434989, AID435008, AID463079, AID485270, AID492963, AID492964, AID492965, AID493232, AID504717, AID504718]; type: functional
T6 sequence (O43613 whole entry): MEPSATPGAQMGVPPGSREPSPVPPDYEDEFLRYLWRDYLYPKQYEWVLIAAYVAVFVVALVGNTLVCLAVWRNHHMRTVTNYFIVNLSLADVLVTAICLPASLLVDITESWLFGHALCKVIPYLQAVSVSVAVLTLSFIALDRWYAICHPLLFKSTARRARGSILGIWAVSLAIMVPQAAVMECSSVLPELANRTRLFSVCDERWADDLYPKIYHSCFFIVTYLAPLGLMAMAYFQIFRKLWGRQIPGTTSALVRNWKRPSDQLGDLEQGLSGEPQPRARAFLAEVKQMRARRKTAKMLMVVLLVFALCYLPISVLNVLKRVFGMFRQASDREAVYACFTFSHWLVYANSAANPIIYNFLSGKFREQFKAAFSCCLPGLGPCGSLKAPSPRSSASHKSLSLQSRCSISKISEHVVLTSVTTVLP

CHO-K1 = assay: Counterscreen for antagonists of the orexin 1 receptor (OX1R; HCRTR1): Homogeneous time resolved fluorescence (HTRF)-based cell-based dose response assay to identify antagonists of the parental CHO-K1 cell line. [Related pubchem assays (depositor defined):AID434989, AID435008, AID463079, AID485270, AID492963, AID492964, AID492965, AID493232, AID504699, AID504701]; type: functional; conditions: Cricetulus griseus;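 note: potency for inhibition of ATP-stimulated IP1 production as antagonists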
[20] = molecular target: T6, Orexin/Hypocretin receptor type 1; assay: Fluorescence-based cell-based high throughput dose response assay for antagonists of the orexin 1 receptor (OX1R; HCRTR1). [Related pubchem assays (depositor defined):AID434989, AID435008, AID463079, AID485270, AID492963, AID492964, AID492965, AID493232, AID504717, AID504718]; type: functional
[21] = molecular target: DNA (cytosine-5)-methyltransferase 1 (Homo sapiens, UniProt P26358); assay: DNMT1 methyltransferase inhibitors, confirmation, biochemical, fluorescent molecular beacon (AID 602386); type: functional
[22] = molecular target: 26S proteasome non-ATPase regulatory subunit 14 (Homo sapiens, UniProt O00487); assay: inhibition of proteasome subunit RPN11 – biochemical, fluorescence polarization, uHTS hits, confirmation (AID 602368); type: functional
[23] = molecular target: 72 kDa type IV collagenase (Homo sapiens, UniProt P08253); assay: Dose Response validation of uHTS RPN11 inhibitor hits using a MMP-2 Fluorescence assay.; type: functional
Prothrombin = Prothrombin (Bos taurus, UniProt P00735); assay: thrombin inhibition, dose response, biochemical, fluorescence polarization, uHTS hits (AID 602369); type: functional

T4 sequence (P49327 whole entry, the tested form may be a part): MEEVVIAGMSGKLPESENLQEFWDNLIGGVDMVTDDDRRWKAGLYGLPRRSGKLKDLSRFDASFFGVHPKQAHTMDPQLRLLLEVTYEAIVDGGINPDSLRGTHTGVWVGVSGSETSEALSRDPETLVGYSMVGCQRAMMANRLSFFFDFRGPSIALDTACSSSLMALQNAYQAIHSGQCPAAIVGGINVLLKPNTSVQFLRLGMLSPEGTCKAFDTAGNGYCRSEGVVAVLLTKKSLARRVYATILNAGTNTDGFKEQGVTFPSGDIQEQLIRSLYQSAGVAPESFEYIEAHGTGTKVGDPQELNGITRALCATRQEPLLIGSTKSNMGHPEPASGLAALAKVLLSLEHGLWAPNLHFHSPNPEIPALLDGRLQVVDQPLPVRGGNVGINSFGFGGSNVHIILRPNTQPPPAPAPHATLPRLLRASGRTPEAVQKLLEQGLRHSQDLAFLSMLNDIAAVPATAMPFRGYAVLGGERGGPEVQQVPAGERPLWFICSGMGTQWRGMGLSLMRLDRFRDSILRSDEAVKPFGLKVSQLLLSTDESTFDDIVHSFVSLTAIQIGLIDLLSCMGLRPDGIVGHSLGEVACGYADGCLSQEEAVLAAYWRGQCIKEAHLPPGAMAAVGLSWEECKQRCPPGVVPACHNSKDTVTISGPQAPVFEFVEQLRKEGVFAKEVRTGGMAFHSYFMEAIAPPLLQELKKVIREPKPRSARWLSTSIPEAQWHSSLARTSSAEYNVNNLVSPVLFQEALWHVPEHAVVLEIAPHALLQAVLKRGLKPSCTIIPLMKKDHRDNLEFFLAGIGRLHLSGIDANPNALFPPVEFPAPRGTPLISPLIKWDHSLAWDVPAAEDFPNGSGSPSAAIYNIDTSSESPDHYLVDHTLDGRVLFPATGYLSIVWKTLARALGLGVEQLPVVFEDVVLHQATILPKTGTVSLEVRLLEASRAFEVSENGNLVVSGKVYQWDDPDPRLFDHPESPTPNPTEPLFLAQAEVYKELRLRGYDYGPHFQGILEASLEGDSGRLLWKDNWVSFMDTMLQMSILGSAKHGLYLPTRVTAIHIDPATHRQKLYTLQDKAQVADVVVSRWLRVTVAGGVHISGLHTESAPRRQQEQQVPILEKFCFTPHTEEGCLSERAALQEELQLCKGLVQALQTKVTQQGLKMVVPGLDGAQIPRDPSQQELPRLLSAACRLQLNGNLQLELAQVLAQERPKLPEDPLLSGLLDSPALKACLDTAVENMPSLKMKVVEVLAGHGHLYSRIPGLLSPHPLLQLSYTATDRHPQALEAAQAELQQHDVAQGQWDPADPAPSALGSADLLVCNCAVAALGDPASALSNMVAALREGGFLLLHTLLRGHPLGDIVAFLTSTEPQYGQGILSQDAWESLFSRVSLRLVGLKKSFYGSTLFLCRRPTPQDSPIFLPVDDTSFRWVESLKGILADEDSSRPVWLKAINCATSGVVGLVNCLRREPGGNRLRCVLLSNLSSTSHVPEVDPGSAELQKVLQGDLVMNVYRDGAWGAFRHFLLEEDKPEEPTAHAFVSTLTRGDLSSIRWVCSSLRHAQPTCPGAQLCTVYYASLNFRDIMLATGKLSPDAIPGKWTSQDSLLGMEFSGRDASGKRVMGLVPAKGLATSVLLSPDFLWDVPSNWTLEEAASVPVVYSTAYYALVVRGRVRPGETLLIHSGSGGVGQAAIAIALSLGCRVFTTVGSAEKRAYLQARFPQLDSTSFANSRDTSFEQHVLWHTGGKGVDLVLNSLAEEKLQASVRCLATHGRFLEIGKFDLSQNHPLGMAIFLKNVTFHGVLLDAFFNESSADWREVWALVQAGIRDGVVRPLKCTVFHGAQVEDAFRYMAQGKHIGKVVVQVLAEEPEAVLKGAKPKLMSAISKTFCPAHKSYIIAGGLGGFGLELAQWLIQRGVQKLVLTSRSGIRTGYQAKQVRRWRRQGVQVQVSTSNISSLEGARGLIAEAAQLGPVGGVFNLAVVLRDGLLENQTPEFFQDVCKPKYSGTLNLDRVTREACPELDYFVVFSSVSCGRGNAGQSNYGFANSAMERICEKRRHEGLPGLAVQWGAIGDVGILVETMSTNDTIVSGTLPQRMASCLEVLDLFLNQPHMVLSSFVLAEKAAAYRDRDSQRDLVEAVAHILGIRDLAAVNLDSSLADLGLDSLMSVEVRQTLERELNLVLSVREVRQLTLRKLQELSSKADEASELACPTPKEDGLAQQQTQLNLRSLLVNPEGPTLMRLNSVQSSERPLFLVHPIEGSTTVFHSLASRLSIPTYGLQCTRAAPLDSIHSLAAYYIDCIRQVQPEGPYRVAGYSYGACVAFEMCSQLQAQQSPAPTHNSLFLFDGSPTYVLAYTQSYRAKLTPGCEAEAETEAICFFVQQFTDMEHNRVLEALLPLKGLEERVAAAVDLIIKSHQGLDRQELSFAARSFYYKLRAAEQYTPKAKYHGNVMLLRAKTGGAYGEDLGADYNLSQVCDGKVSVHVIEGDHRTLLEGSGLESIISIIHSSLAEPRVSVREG
T3 sequence (Q932Y6 whole entry): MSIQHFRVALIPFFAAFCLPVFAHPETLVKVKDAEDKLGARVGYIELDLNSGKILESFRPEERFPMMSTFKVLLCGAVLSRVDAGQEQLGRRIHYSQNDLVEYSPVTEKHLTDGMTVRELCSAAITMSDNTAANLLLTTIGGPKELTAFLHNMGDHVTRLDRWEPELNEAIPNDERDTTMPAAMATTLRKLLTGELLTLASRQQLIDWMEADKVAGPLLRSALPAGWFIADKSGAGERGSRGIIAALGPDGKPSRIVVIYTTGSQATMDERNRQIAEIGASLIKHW
Sequence of Genome polyprotein (P29990 2492-3391 limits assumed): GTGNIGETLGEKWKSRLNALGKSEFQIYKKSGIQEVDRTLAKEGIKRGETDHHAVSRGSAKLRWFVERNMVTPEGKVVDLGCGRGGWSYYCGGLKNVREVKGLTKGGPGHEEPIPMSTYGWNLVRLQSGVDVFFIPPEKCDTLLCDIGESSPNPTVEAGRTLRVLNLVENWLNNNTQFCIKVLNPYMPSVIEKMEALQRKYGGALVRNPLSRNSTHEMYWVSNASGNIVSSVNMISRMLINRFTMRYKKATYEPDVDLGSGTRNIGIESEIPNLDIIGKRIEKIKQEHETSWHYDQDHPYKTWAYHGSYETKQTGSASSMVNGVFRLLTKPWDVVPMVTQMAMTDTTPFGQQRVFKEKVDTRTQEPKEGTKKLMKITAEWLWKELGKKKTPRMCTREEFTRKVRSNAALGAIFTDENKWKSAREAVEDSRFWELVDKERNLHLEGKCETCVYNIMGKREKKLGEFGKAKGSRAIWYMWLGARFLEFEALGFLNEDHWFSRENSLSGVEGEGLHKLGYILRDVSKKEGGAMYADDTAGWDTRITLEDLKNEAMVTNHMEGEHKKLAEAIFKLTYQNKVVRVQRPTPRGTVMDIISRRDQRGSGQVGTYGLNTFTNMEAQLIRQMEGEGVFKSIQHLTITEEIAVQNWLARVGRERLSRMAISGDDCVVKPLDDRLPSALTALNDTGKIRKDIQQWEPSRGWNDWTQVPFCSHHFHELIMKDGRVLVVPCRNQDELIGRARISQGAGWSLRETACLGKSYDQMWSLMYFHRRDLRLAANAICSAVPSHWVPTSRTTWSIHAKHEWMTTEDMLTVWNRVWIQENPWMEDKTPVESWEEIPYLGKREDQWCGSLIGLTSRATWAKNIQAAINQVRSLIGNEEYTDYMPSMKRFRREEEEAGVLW
Sequence of 26S proteasome non-ATPase regulatory subunit 14 (O00487 whole entry): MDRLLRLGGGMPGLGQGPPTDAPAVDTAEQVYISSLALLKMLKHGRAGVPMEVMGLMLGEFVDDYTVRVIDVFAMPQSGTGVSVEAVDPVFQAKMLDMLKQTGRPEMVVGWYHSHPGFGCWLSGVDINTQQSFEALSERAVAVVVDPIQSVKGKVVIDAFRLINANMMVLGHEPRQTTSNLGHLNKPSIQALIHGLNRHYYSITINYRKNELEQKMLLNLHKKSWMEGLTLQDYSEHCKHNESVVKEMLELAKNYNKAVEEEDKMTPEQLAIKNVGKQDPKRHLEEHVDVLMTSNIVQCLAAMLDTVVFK
Sequence of 72 kDa type IV collagenase (P08253 whole entry): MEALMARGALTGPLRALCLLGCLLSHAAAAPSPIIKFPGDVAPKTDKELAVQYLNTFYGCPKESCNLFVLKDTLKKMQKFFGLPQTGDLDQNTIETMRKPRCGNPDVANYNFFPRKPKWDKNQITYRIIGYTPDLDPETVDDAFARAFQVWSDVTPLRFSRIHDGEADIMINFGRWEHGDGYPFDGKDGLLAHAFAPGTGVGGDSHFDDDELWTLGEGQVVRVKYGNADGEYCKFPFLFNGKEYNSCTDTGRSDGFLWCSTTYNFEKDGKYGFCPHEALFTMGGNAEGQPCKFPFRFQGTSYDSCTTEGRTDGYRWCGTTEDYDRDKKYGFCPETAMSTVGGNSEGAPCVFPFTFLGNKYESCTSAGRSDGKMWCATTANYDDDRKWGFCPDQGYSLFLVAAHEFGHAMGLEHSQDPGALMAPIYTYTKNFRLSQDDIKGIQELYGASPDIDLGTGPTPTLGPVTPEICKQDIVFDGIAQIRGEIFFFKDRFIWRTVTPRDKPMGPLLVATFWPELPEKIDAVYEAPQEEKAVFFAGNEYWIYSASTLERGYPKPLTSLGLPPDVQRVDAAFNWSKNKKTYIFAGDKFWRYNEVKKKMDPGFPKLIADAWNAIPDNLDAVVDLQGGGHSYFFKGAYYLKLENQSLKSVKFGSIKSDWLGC

Compound: O=[N+]([O-])c1c(Nc2ccc(O)cc2)cc(Cl)c2nonc12
- EC50 [1]: 2.66 µM (active)
- EC50 (Protein RecA): 0.926 µM (active)
- IC50 (Genome polyprotein): 10.4 µM (active)
- AC50 (INS1): 5.23 µM (active)
- EC50 (BJ [2]): 0.501 µM (active)
- EC50 [3]: 4.2 µM (active)
- EC50 [4]: > 112 µM (not active)
- IC50 [5]: 0.969 µM (active)
- CC50 (Vero): 16.9 µM (active)
- AC50 [6]: 1.1 µM (active)
- IC50 (Beta Lactamase [7]): 6.38 µM (active)
- EC50 (BJ [8]): 1.92 µM (inconclusive)
- EC50 (BJ [9]): 5.3 µM (inconclusive)
- EC50 (BJ [10]): 3.96 µM (inconclusive)
- IC50 (Fatty acid synthase [11]): 5.26 µM (active)
- IC50 (CHO): 1.13 µM (active)
- IC50 (Beta Lactamase [12]): 5.98 µM (active)
- IC50 (Fatty acid synthase [13]): 4.41 µM (active)
- IC50 (Large T antigen): 12.3 µM (active)

Compound: O=C(c1ccco1)N1CCCC(c2nc(-c3ccc(S(=O)(=O)NCc4ccccc4)cc3)no2)C1 (stereo not drawn)
- IC50 (Orexin receptor type 2 [14]): 39.3 µM (inactive)
- EC50 [15]: 18.6 µM (active)
- EC50 [16]: 21.2 µM (active)
- IC50 (Orexin receptor type 2 [17]): 5.51 µM (active)

Compound: Cc1ccc(NC2CCCN(C(=O)c3cccc(-c4ncc[nH]4)c3)C2)cc1C (stereo not drawn)
- IC50 (Orexin receptor type 2 [14]): 17.1 µM (inactive)
- IC50 [18]: > 49.7 µM (inactive)
- IC50 (Orexin receptor type 2 [17]): 4.48 µM (active)
- IC50 [19]: 0.175 µM (active)
- IC50 (CHO-K1): > 66.2 µM (inactive)
- IC50 [20]: 2.99 µM (active)

Compound: O=C(O)CCCCCN1C(=O)/C(=C/c2cn(-c3ccccc3)nc2-c2cccs2)SC1=S
- IC50 [21]: 5.56 µM (active)
- IC50 [22]: 7.92 µM (active)
- IC50 [23]: 10.3 µM (active)
- IC50 (Prothrombin): 29 µM (active)
